Source: patent US20230104936A1, “TRPML MODULATORS” (Casma Therapeutics, Inc., priority 2019, published 2023)

Test system: TFEB
Test: TFEB nuclear translocation assay, HeLa wt cells
Assay type: cell-based
Conditions: 2 hrs compound treatment, Table 1 does not say HeLa wt or TRPML1 KO
Method in brief: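 HeLa wt, 2 hr compound, 37° C; 4% PFA fix; anti-TFEB (rabbit, 1:200, overnight 4° C) + Alexa 488 secondary, Hoechst. Imaged ×20, 4 fields/well. Readout: nuclear/ring Alexa 488 intensity ratio; AC50.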

Compound | AC50 (Homo sapiens, HeLa, 2 h) [µM] | AC50 [µM]
COCC1(C)CCN(c2ccccc2CS(=O)(=O)c2ccc(S(=O)(=O)N(C)C)cc2)CC1 [Compound A-493, 4-({2-[4-(methoxymethyl)-4-methylpiperidin-1-yl]phenyl}methanesulfonyl)-N,N-dimethylbenzene-1-sulfonamide] | ≤ 2 | –
O=S(=O)(Nc1cccc(F)c1N1CCC(CN2C3COCC2C3)CC1)c1ccc(C(F)(F)C2CC2)cc1 [Compound A-898, 4-(cyclopropyldifluoromethyl)-N-{3-fluoro-2-[4-({3-oxa-6-azabicyclo[3.1.1]heptan-6-yl}methyl)piperidin-1-yl]phenyl}benzene-1-sulfonamide] | ≥ 10 | –
CC(c1cccc(F)c1N1CCC(CN2C[C@@H](C)O[C@@H](C)C2)CC1)S(=O)(=O)c1ccc(N=S(C)(C)=O)cc1 (stereo partly drawn) [Compound A-1002, [(4-{1-[2-(4-{[(2R,6S)-2,6-dimethylmorpholin-4-yl]methyl}piperidin-1-yl)-3-fluorophenyl]ethanesulfonyl}phenyl)imino]dimethyl-λ^6-sulfanone] | ≥ 10 | –
CC1(C)CC2(CCN(c3ccccc3NS(=O)(=O)c3ccc(C4CC4(F)F)cc3)CC2)CO1 (stereo not drawn) [Compound A-718, 4-(2,2-difluorocyclopropyl)-N-(2-{3,3-dimethyl-2-oxa-8-azaspiro[4.5]decan-8-yl}phenyl)benzene-1-sulfonamide] | ≤ 2 | –
CN(C)S(=O)(=O)c1ccc(S(=O)(=O)Nc2ccccc2N2CCC3(CC2)COc2cc(F)ccc23)cc1 [Compound A-253, N4-(2-{6-fluoro-2H-spiro[1-benzofuran-3,4′-piperidin]-1′-yl}phenyl)-N1,N1-dimethylbenzene-1,4-disulfonamide] | ≤ 2 | –
CN(C)S(=O)(=O)c1ccc(S(=O)(=O)Nc2ccccc2N2CCC(O)(c3ccc(F)cn3)CC2)cc1 [Compound A-209, N4-{2-[4-(5-fluoropyridin-2-yl)-4-hydroxypiperidin-1-yl]phenyl}-N1,N1-dimethylbenzene-1,4-disulfonamide] | ≤ 2 | –
CS(=O)(=O)c1ccc(S(=O)(=O)Nc2ccccc2N2CCC3(CC2)OCCc2ccccc23)cc1 [Compound A-402, N-(2-{3,4-dihydrospiro[2-benzopyran-1,4′-piperidin]-1′-yl}phenyl)-4-methanesulfonylbenzene-1-sulfonamide] | 2.01 to 8 | –
CN1CCC(N(C)S(=O)(=O)c2ccc(NC(=O)COc3ccccc3-c3ccccc3)cc2)CC1 [Compound A-404, 2-{[1,1′-biphenyl]-2-yloxy}-N-{4-[methyl(1-methylpiperidin-4-yl)sulfamoyl]phenyl}acetamide] | 2.01 to 8 | –
Cc1ccc(S(=O)(=O)Cc2ccccc2N2CCC(c3ccc(Cl)cc3F)CC2)cc1 [Compound A-138, 4-(4-chloro-2-fluorophenyl)-1-(2-(tosylmethyl)phenyl)piperidine] | ≤ 2 | –
CN(C)S(=O)(=O)c1ccc(S(=O)(=O)Nc2nn(C)cc2C2CCN(c3ccccc3F)CC2)cc1 [Compound A-40, N1-(4-(1-(2-fluorophenyl)piperidin-4-yl)-1-methyl-1H-pyrazol-3-yl)-N4,N4-dimethylbenzene-1,4-disulfonamide] | 2.01 to 8 | –
COCC1(C)CCN(c2ccccc2NS(=O)(=O)c2ccc3c(c2)CC(C)(C)C3=O)CC1 [Compound A-639, N-{2-[4-(methoxymethyl)-4-methylpiperidin-1-yl]phenyl}-2,2-dimethyl-1-oxo-2,3-dihydro-1H-indene-5-sulfonamide] | ≥ 10 | –
COCC1(C)CCN(c2ccccc2C(C)S(=O)(=O)c2ccc(S(=O)(=O)N(C)C)cc2)CC1 (stereo not drawn) [Compound A-491, 4-(1-{2-[4-(methoxymethyl)-4-methylpiperidin-1-yl]phenyl}ethanesulfonyl)-N,N-dimethylbenzene-1-sulfonamide] | ≤ 2 | –
CC1(C)CC2(CCN(c3ccccc3NS(=O)(=O)c3ccc(OC(F)(F)F)cc3)CC2)CO1 [Compound A-673, N-(2-{3,3-dimethyl-2-oxa-8-azaspiro[4.5]decan-8-yl}phenyl)-4-(trifluoromethoxy)benzene-1-sulfonamide] | 2.01 to 8 | –
CN(C)S(=O)(=O)c1ccc(S(=O)(=O)Nc2ccccc2N2CCC(C(=O)Nc3ccccc3)CC2)cc1 [Compound A-338, 1-{2-[4-(dimethylsulfamoyl)benzenesulfonamido]phenyl}-N-phenylpiperidine-4-carboxamide] | 2.01 to 8 | –
COc1ccc(S(=O)(=O)Nc2ccccc2N2CC(Oc3ccc(F)cc3F)C2)cc1 [Compound A-200, N-{2-[3-(2,4-difluorophenoxy)azetidin-1-yl]phenyl}-4-methoxybenzene-1-sulfonamide] | 2.01 to 8 | –
CCC1(N2CCCCC2)CCN(c2ccccc2NS(=O)(=O)c2ccc(S(=O)(=O)N(C)C)cc2)CC1 [Compound A-475, N4-(2-{4′-ethyl-[1,4′-bipiperidin]-1′-yl}phenyl)-N1,N1-dimethylbenzene-1,4-disulfonamide] | ≤ 2 | –
CC(c1cccc(F)c1N1CCC(C)(C(F)F)CC1)S(=O)(=O)c1ccc(C(F)F)cc1 (single isomer, unassigned) [Compound A-964, 4-(difluoromethyl)-1-(2-(1-((4-(difluoromethyl)phenyl)sulfonyl)ethyl)-6-fluorophenyl)-4-methylpiperidine] | – | ≤ 2
Cc1nn(C)c(C2=CCN(c3ccc(Cl)cc3F)CC2)c1NS(=O)(=O)c1ccc(S(=O)(=O)N(C)C)cc1 [Compound A-29, N1-(5-(1-(4-chloro-2-fluorophenyl)-1,2,3,6-tetrahydropyridin-4-yl)-1,3-dimethyl-1H-pyrazol-4-yl)-N4,N4-dimethylbenzene-1,4-disulfonamide] | ≥ 10 | –
CN(C)S(=O)(=O)c1ccc(S(=O)(=O)Nc2ccccc2N2CCC(C(=O)N3CCOCC3)CC2)cc1 [Compound A-761, N1,N1-dimethyl-N4-{2-[4-(morpholine-4-carbonyl)piperidin-1-yl]phenyl}benzene-1,4-disulfonamide] | ≥ 10 | –
CC(C)(C)C(=O)N1CCN(c2ccccc2NS(=O)(=O)Cc2ccc(Br)cc2F)CC1 [Compound A-488, 1-(4-bromo-2-fluorophenyl)-N-{2-[4-(2,2-dimethylpropanoyl)piperazin-1-yl]phenyl}methanesulfonamide] | 8.01 to 9.99 | –
O=S(=O)(Nc1ccccc1N1CCC(c2ccc(Cl)cc2F)CC1)c1ccc(C(O)C(F)(F)F)cc1 (stereo not drawn) [Compound A-157, N-{2-[4-(4-chloro-2-fluorophenyl)piperidin-1-yl]phenyl}-4-(2,2,2-trifluoro-1-hydroxyethyl)benzene-1-sulfonamide] | ≤ 2 | –
COCC1(C)CCN(c2c(F)cccc2NS(=O)(=O)c2ccc(S(=O)(=O)N(C)C)cc2)CC1 [Compound A-681, N4-{3-fluoro-2-[4-(methoxymethyl)-4-methylpiperidin-1-yl]phenyl}-N1,N1-dimethylbenzene-1,4-disulfonamide] | ≤ 2 | –
CN(C)S(=O)(=O)c1ccc(S(=O)(=O)Nc2cc(Cl)ccc2N2CCOCC2)cc1 [Compound A-290, N4-[5-chloro-2-(morpholin-4-yl)phenyl]-N1,N1-dimethylbenzene-1,4-disulfonamide] | ≥ 10 | –
CN(C)S(=O)(=O)c1ccc(S(=O)(=O)Nc2ccccc2N2CC3CC(C2)N3c2ccc(Cl)cc2F)cc1 [Compound A-30, N4-{2-[6-(4-chloro-2-fluorophenyl)-3,6-diazabicyclo[3.1.1]heptan-3-yl]phenyl}-N1,N1-dimethylbenzene-1,4-disulfonamide] | ≤ 2 | –
CN1CCN(c2ccccc2NS(=O)(=O)c2ccc(S(=O)(=O)N(C)C)cc2)CC1 [Compound A-54, N1,N1-dimethyl-N4-[2-(4-methylpiperazin-1-yl)phenyl]benzene-1,4-disulfonamide] | ≥ 10 | –
CC(C)(C)C(=O)N1CCN(c2ccccc2NS(=O)(=O)c2ccc(C(F)(F)F)cc2)CC1 [Compound A-527, N-{2-[4-(2,2-dimethylpropanoyl)piperazin-1-yl]phenyl}-4-(trifluoromethyl)benzene-1-sulfonamide] | 2.01 to 8 | –
CC1(C)CC2(CCN(c3ccccc3NS(=O)(=O)c3ccc4c(c3)COCC4)CC2)CO1 [Compound A-715, N-(2-{3,3-dimethyl-2-oxa-8-azaspiro[4.5]decan-8-yl}phenyl)-3,4-dihydro-1H-2-benzopyran-7-sulfonamide] | ≤ 2 | –
CN(C)S(=O)(=O)c1ccc(S(=O)(=O)Nc2ccccc2N2CCN(c3ccc(Cl)cc3F)CC2=O)cc1 [Compound A-283, N4-{2-[4-(4-chloro-2-fluorophenyl)-2-oxopiperazin-1-yl]phenyl}-N1,N1-dimethylbenzene-1,4-disulfonamide] | ≥ 10 | –
CN1CC2(CCN(c3ccccc3NS(=O)(=O)c3ccc(S(C)(=O)=O)cc3)CC2)c2ncccc21 [Compound A-320, 4-methanesulfonyl-N-(2-{1′-methyl-1′,2′-dihydrospiro[piperidine-4,3′-pyrrolo[3,2-b]pyridin]-1-yl}phenyl)benzene-1-sulfonamide; formic acid] | ≥ 10 | –
CN(C)S(=O)(=O)c1ccc(S(=O)(=O)Nc2ccccc2N2CCCC23CCCOC3)cc1 (stereo not drawn) [Compound A-499, N1,N1-dimethyl-N4-(2-{7-oxa-1-azaspiro[4.5]decan-1-yl}phenyl)benzene-1,4-disulfonamide] | ≤ 2 | –
